From ChEMBL document CHEMBL2406968, “Heteroaryl sodium channel inhibitors” (ACS Med Chem Lett, 2013)

How the values were obtained:
[1] = molecular target: Sodium channel protein type 11 subunit alpha (Homo sapiens) (UniProt Q9UI33); experiment: Inhibition of Nav1.9 (unknown origin) expressed in HEK293 cells by automated patch clamp assay; type: cell-based
[2] = molecular target: Sodium channel protein type 9 subunit alpha (Homo sapiens) (UniProt Q15858); experiment: Inhibition of Nav1.7 (unknown origin) expressed in HEK293 cells by automated patch clamp assay; type: cell-based
Chain of Sodium channel protein type 9 subunit alpha (Homo sapiens) (Q15858 whole entry, looked up): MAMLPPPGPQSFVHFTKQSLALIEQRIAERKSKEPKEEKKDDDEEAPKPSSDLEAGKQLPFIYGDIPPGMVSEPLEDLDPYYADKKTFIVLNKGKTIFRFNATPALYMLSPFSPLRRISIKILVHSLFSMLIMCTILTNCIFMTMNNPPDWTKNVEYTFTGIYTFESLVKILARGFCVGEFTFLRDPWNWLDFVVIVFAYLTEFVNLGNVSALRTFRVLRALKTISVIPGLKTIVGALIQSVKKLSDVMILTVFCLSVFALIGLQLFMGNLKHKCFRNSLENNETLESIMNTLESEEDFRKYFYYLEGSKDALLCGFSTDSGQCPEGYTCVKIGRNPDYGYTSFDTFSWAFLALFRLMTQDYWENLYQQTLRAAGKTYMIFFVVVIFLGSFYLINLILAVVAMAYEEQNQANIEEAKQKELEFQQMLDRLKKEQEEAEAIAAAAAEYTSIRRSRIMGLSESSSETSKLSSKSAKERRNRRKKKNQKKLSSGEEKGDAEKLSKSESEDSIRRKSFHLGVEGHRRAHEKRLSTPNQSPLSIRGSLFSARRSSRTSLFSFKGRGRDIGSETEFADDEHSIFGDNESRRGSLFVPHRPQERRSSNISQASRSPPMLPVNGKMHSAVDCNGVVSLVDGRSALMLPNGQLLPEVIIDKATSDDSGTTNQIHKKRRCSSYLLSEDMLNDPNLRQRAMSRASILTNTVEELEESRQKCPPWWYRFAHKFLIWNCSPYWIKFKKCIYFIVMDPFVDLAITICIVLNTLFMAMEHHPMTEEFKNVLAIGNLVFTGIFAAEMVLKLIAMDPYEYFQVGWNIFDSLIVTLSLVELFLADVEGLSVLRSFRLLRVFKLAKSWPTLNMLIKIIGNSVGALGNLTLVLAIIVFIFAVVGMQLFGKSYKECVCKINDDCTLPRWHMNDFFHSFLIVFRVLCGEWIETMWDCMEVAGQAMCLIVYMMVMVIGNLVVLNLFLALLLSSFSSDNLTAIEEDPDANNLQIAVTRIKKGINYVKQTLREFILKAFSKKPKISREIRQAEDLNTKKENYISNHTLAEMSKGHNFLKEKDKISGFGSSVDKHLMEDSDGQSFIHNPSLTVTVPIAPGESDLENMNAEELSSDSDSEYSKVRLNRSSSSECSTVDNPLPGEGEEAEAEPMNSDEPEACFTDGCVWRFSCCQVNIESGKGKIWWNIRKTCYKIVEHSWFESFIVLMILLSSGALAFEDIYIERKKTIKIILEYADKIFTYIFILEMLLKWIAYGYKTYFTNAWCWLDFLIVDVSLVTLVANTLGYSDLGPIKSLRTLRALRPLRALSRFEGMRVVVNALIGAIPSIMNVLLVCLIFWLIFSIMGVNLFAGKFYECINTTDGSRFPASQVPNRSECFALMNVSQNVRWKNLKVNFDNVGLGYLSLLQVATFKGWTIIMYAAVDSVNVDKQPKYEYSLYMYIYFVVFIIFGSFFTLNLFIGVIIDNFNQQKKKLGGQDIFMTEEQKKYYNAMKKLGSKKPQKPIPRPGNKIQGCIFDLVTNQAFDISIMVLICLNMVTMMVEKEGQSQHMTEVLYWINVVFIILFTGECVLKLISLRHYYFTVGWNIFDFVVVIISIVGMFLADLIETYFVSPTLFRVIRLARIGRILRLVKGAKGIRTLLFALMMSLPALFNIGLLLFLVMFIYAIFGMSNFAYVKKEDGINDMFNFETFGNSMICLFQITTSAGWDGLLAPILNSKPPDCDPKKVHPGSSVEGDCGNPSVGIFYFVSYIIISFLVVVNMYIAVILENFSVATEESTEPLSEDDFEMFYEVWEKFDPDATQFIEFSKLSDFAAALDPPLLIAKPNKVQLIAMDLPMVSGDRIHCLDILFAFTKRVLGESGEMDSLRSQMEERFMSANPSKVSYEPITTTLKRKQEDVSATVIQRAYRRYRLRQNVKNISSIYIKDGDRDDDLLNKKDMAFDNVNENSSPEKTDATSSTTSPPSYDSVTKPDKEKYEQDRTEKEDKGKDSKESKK

Chain of Sodium channel protein type 11 subunit alpha (Homo sapiens) (Q9UI33 whole entry): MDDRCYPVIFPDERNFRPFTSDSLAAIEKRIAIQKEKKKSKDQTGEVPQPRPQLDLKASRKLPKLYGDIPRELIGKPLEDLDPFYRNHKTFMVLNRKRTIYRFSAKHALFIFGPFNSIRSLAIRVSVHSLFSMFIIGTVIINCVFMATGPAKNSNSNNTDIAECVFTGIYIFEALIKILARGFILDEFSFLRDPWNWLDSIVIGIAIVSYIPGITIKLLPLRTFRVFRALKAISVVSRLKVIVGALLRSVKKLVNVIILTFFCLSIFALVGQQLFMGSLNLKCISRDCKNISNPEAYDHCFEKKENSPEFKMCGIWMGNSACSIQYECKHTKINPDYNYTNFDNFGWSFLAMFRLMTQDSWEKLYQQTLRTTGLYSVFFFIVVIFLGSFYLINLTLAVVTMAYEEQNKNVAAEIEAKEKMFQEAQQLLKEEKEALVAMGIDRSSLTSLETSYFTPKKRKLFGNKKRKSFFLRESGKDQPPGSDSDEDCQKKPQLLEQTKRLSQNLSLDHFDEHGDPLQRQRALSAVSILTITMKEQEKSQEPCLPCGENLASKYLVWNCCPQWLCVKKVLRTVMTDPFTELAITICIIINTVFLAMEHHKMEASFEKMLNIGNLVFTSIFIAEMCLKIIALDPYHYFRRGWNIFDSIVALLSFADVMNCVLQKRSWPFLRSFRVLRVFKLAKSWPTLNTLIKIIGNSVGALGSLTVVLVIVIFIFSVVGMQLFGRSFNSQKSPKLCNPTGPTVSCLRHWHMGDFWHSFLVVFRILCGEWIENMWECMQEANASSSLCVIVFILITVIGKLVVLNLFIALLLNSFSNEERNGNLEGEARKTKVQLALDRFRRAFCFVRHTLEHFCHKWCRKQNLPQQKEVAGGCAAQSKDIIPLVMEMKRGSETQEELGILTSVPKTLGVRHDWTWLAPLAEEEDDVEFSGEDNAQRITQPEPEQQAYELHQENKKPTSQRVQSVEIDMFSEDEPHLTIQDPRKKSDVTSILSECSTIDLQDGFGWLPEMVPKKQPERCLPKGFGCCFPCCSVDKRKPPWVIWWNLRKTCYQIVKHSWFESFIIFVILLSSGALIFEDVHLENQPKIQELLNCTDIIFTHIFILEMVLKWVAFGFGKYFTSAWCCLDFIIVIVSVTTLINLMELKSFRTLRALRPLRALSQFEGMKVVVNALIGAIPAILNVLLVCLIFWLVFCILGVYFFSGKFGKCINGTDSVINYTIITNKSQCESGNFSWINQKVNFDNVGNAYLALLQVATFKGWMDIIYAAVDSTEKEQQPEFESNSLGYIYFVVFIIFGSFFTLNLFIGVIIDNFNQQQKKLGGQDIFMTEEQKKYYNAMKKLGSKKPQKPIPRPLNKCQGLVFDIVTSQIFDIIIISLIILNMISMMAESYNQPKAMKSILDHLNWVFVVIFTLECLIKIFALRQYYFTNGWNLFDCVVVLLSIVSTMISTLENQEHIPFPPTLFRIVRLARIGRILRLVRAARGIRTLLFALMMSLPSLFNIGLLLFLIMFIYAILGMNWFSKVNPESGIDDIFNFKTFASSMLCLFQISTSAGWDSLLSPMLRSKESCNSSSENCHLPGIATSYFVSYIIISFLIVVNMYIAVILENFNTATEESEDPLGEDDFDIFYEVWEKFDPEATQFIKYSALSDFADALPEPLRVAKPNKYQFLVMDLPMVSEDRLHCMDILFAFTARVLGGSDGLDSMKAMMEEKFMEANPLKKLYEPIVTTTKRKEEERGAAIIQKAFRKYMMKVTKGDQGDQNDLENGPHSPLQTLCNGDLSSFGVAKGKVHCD

SMILES | INH [1] [µM] | INH [2] [µM]
Cn1nccc1-c1cc(Cl)ccc1-c1cn(C)c2cc(S(=O)(=O)Nc3ncns3)ccc12 | > 10 | 0.253
Cn1cc(-c2ccc(C(F)(F)F)cc2-c2ccnn2C2CNC2)c2ccc(S(=O)(=O)Nc3ncns3)cc21 | > 10 | 0.263
CC(=O)n1cc(-c2ccc(C(F)(F)F)cc2-c2ccnn2C)c2ccc(S(=O)(=O)Nc3ncns3)cc21 | > 10 | 0.0505
Cn1nccc1-c1cc(C(F)(F)F)ccc1-c1cn(C)c2cc(S(=O)(=O)Nc3ncns3)ccc12 | > 10 | 0.147
Cn1cc(-c2ccc(C(F)(F)F)cc2C2=CCNCC2)c2ccc(S(=O)(=O)Nc3ncns3)cc21 | > 10 | 0.0425
Cn1cc(-c2cccc3c2CCNC3)c2ccc(S(=O)(=O)Nc3ncns3)cc21 | > 10 | 0.292
Cn1cc(-c2cccc3ccccc23)c2ccc(S(=O)(=O)Nc3ncns3)cc21 | > 10 | 0.306
Cn1cc(-c2ccc(C(F)(F)F)cc2-c2ccncc2)c2ccc(S(=O)(=O)Nc3ncns3)cc21 | > 10 | 0.05
Cn1cc(-c2ccc(C(F)(F)F)cc2-c2ccn[nH]2)c2ccc(S(=O)(=O)Nc3ncns3)cc21 | > 10 | 0.0375
